Measured values from patent US20260151375A1, “CDK2 INHIBITORS AND METHODS OF USING THE SAME” (Cedilla Therapeutics, Inc., priority 2022, published 2026).
Like-named read-outs stand apart in the source and are kept apart here.

Assays:
Kuramochi cells = test: IncuCyte Kuramochi Assay (cell proliferation); type: cell-based; conditions: Kuramochi cells labeled with mApple-H2B, cell count, read-out: IncuCyte - Kuramochi RB-WT: IC50
In short: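 Cells imaged at 0 and 72 h after compound treatment (10 points, ½ log dilution, 20 μM top), with fluorescent nuclei counted. Fold change in count was normalized to DMSO wells and fitted to dose-response curves to give GI50.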

CDK2/Cyclin E1 [1] = biological target: T1, CDK2/Cyclin E1 (Homo sapiens, UniProt P24941); test: ADPGLO (CDK2/E1-37 C), ADP-Glo Luminescent Kinase Assay; type: biochemical; conditions: 0.18 nM CDK2/Cyclin E1, 100 μM ATP, Histone H1, 37° C.
T1 construct: purchased 14-475
In short: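 Human CDK2/Cyclin E1 preincubated with inhibitor 60 min at 37 °C, then reacted 90 min at 37 °C with final 0.18 nM enzyme, 100 μM ATP, 1.5 μM Histone H1 in HEPES pH 7.5 buffer. ADP formed read by ADP-Glo luminescence; IC50 from four-parameter fit.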

CDK2/Cyclin E1 [2] = biological target: T1, CDK2/Cyclin E1; test: Caliper Assay (LabChip EZ Reader mobility shift assay), inhibition of CDK2/Cyclin E1 activity; type: biochemical; conditions: 2.5 nM CDK2/Cyclin E1(14-475), 100 μM ATP, 30 min preincubation; read-out: Caliper Assay (CDK2/CCNE1): IC50
In short: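 Compounds were preincubated 30 min with CDK2/Cyclin E1(14-475), then run for 100 min with 2.5 nM enzyme, 100 μM ATP and 1.5 μM 5-FAM-QSPKKG peptide in HEPES pH 7.5 (final). Reactions were EDTA-stopped and substrate-to-product conversion read by mobility shift. IC50 came from a four-parameter fit.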

Compound | IC50 (Kuramochi cells; 72 hours) | IC50 (CDK2/Cyclin E1 [1]) | IC50 (CDK2/Cyclin E1 [2]) | IC50 (Kuramochi cells; 72 h)
CC(c1nc(C2CN(C(=O)c3cncs3)CC23CN(C(=O)[C@H]2CC2(C)C)C3)no1)n1ccc(C2CCCC2)n1 (single isomer, unassigned) [I-36 2nd] | > 10 µM | > 10 µM | 1000 to 10000 nM | 
CC(c1nc(C2CN(C(=O)c3cncs3)CC23CN(C(=O)[C@H]2CC2(C)C)C3)no1)n1ccc(C2CCCC2)n1 (single isomer, unassigned) [I-36 3rd] | > 10 µM | ≤ 0.5 µM | 10 to 100 nM | 
CC1(C)C[C@@H]1C(=O)N1CC2(CN(C(=O)c3cnccn3)CC2c2nnc(C(F)(F)c3ccc(Cl)c(Cl)c3)o2)C1 (single isomer, unassigned) [I-45 2nd] | > 10 µM | > 10 µM | 100 to 1000 nM | 
CC1(C)C[C@@H]1C(=O)N1CC2(CN(C(=O)c3cnn(Cc4ccccc4)c3)C[C@H]2c2nnc(Cc3ccc(Cl)c(Cl)c3)o2)C1 [I-15, (1-benzyl-1H-pyrazol-4-yl)((S)-8-(5-(3,4-dichlorobenzyl)-1,3,4-oxadiazol-2-yl)-2-((S)-2,2-dimethylcyclopropane-1-carbonyl)-2,6-diazaspiro[3.4]octan-6-yl)methanone] |  | 0.5 to 5 µM | 10 to 100 nM | 5 to 10 µM
CC1(C)C[C@@H]1C(=O)N1CC2(CN(C(=O)c3cncs3)CC2c2nnc(C(F)(F)c3ccc(Cl)c(Cl)c3)o2)C1 (stereo partly drawn) [I-32] |  | 0.5 to 5 µM | 100 to 1000 nM | > 10 µM
COc1ccc(COc2cncc(C(=O)N3CC(c4nnc(C(F)(F)c5ccc(Cl)c(Cl)c5)o4)C4(C3)CN(C(=O)[C@H]3CC3(F)F)C4)n2)cc1 (stereo partly drawn) [I-125] |  | > 100 µM | > 100000 nM | > 10 µM
CC(c1nc(C2CN(C(=O)c3cnn(Cc4ccc(C(=O)O)nc4)c3)CC23CN(C(=O)[C@H]2CC2(C)C)C3)no1)n1ccc(C2CCCC2)n1 (stereo partly drawn) [I-126] |  | > 10 µM | 100 to 1000 nM | > 10 µM
CC(c1nc(C2CN(C(=O)c3cnn(Cc4ccc(C(=O)O)cc4)c3)CC23CN(C(=O)[C@H]2CC2(C)C)C3)no1)n1ccc(C2CCCC2)n1 (stereo partly drawn) [I-127] |  | 5 to 10 µM | 100 to 1000 nM | > 10 µM
CC(c1nc(C2CN(C(=O)c3nccnc3O)CC23CN(C(=O)[C@H]2CC2(F)F)C3)no1)n1ccc(C2CCCC2)n1 (stereo partly drawn) [I-129] |  | > 10 µM | > 100000 nM | > 10 µM
CC(c1nc(C2CN(C(=O)c3cnn(Cc4cc(F)c(C(=O)O)c(F)c4)c3)CC23CN(C(=O)[C@H]2CC2(C)C)C3)no1)n1ccc(C2CCCC2)n1 (stereo partly drawn) [I-130, 4-((4-(8-(5-(1-(3-cyclopentyl-1H-pyrazol-1-yl)ethyl)-1,2,4-oxadiazol-3-yl)-2-((S)-2,2-dimethylcyclopropane-1-carbonyl)-2,6-diazaspiro[3.4]octane-6-carbonyl)-1H-pyrazol-1-yl)methyl)-2,6-difluorobenzoic acid] |  | 0.5 to 5 µM | 10 to 100 nM | > 10 µM
CC(c1nc(C2CN(C(=O)c3cnn(Cc4cccc(C(=O)O)c4)c3)CC23CN(C(=O)[C@H]2CC2(C)C)C3)no1)n1ccc(C2CCCC2)n1 (stereo partly drawn) [I-131] |  | 0.5 to 5 µM | ≤ 10 nM | > 10 µM
O=C(c1cnc(O)cn1)N1CC(c2nnc(C(F)(F)c3ccc(C4CCOCC4)cc3)o2)C2(C1)CN(C(=O)[C@H]1CC1(F)F)C2 (stereo partly drawn) [I-132, (8-(5-(difluoro(4-(tetrahydro-2H-pyran-4-yl)phenyl)methyl)-1,3,4-oxadiazol-2-yl)-2-((R)-2,2-difluorocyclopropane-1-carbonyl)-2,6-diazaspiro[3.4]octan-6-yl)(5-hydroxypyrazin-2-yl)methanone] |  | > 10 µM | 1000 to 10000 nM | > 10 µM
CC(c1nc(C2CN(C(=O)c3cnn(Cc4ccc(C#N)cc4)c3)CC23CN(C(=O)[C@H]2CC2(C)C)C3)no1)n1ccc(C2CCCC2)n1 (stereo partly drawn) [I-133, 4-((4-(8-(5-(1-(3-cyclopentyl-1H-pyrazol-1-yl)ethyl)-1,2,4-oxadiazol-3-yl)-2-((S)-2,2-dimethylcyclopropane-1-carbonyl)-2,6-diazaspiro[3.4]octane-6-carbonyl)-1H-pyrazol-1-yl)methyl)benzonitrile] |  | ≤ 0.5 µM | ≤ 10 nM | 0.5 to 5 µM
CC(c1nc(C2CN(C(=O)c3cnc(O)cn3)CC23CN(C(=O)[C@H]2CC2(F)F)C3)no1)n1ccc(C2CCCC2)n1 (stereo partly drawn) [I-134, (8-(5-(1-(3-cyclopentyl-1H-pyrazol-1-yl)ethyl)-1,2,4-oxadiazol-3-yl)-2-((R)-2,2-difluorocyclopropane-1-carbonyl)-2,6-diazaspiro[3.4]octan-6-yl)(5-hydroxypyrazin-2-yl)methanone] |  | 0.5 to 5 µM | 100 to 1000 nM | > 10 µM
O=C(c1nccnc1O)N1CC(c2nnc(C(F)(F)c3ccc(Cl)c(Cl)c3)o2)C2(CN(CC3CCCO3)C2)C1 (stereo not drawn) [I-135] |  | > 100 µM | > 100000 nM | > 10 µM
O=C(c1[nH]ncc1C(F)(F)F)N1CC(c2nnc(C(F)(F)c3ccc(Cl)c(Cl)c3)o2)C2(CN(CC3CCCO3)C2)C1 (stereo not drawn) [I-136] |  | > 100 µM | > 100000 nM | > 10 µM
COc1cn[nH]c1C(=O)N1CC(c2nnc(C(F)(F)c3ccc(Cl)c(Cl)c3)o2)C2(C1)CN(C(=O)[C@H]1CC1(F)F)C2 (stereo partly drawn) [I-137, (8-(5-((3,4-dichlorophenyl)difluoromethyl)-1,3,4-oxadiazol-2-yl)-2-((R)-2,2-difluorocyclopropane-1-carbonyl)-2,6-diazaspiro[3.4]octan-6-yl)(4-methoxy-1H-pyrazol-5-yl)methanone] |  | > 10 µM | 1000 to 10000 nM | > 10 µM
COc1cc(C(=O)N2CC(c3nnc(C(F)(F)c4ccc(Cl)c(Cl)c4)o3)C3(C2)CN(C(=O)[C@H]2CC2(F)F)C3)[nH]n1 (stereo partly drawn) [I-138] |  | > 100 µM | > 10000 nM | > 10 µM
CC(c1nc(C2CN(C(=O)c3cnn(Cc4ccc(C(F)(F)F)cc4)c3)CC23CN(C(=O)C2(C(F)(F)F)CC2)C3)no1)n1ccc(C2(C(F)(F)F)CC2)n1 (stereo not drawn) [I-223, (1-(4-(trifluoromethyl)benzyl)-1H-pyrazol-4-yl)(2-(1-(trifluoromethyl)cyclopropane-1-carbonyl)-8-(5-(1-(3-(1-(trifluoromethyl)cyclopropyl)-1H-pyrazol-1-yl)ethyl)-1,2,4-oxadiazol-3-yl)-2,6-diazaspiro[3.4]octan-6-yl)methanone] |  | > 10 µM |  | 5 to 10 µM
Cc1nc(C(=O)N2C[C@H](c3noc(C(C)n4ccc(C5CCOCC5)n4)n3)C3(C2)CN(C(=O)C2(C(F)(F)F)CC2)C3)cnc1O (stereo partly drawn) [I-224, (5-hydroxy-6-methylpyrazin-2-yl)((8R)-8-(5-(1-(3-(tetrahydro-2H-pyran-4-yl)-1H-pyrazol-1-yl)ethyl)-1,2,4-oxadiazol-3-yl)-2-(1-(trifluoromethyl)cyclopropanecarbonyl)-2,6-diazaspiro[3.4]octan-6-yl)methanone] |  | > 10 µM |  | > 10 µM
CC(c1nc(C2CN(C(=O)c3cnc(O)c(C(F)(F)F)n3)CC23CN(C(=O)C2(C(F)(F)F)CC2)C3)no1)n1ccc(C2CCOCC2)n1 (stereo not drawn) [I-225, (5-Hydroxy-6-(trifluoromethyl)pyrazin-2-yl)(8-(5-(1-(3-(tetrahydro-2H-pyran-4-yl)-1H-pyrazol-1-yl)ethyl)-1,2,4-oxadiazol-3-yl)-2-(1-(trifluoromethyl)cyclopropane-1-carbonyl)-2,6-diazaspiro[3.4]octan-6-yl)methanone] |  | 5 to 10 µM |  | > 10 µM
